Reference: publication PMC8224398, “SARS-CoV-2 mutations in MHC-I-restricted epitopes evade CD8^+ T cell responses” (Science Immunology, 2021)

Test system: CD8+ T cells in PBMCs of COVID-19 patients
Assay type: cell-based, human

With YFQPRTFLL [YLQ mutant] the “wild type tetramer-positive CD8+ T cells after expansion with mutant versus wild type peptide (in words)” value was “reduced numbers of YLQ tetramer positive cells”.
